Data as given in PubChem BioAssay (NCI).
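Grown in 96-well plates, cells were treated for 48 hours with each compound at five concentrations. Insufficient inhibition: endpoint recorded as highest concentration tested. GI50 = concentration required for 50% inhibition of growth. At the TGI there is no net growth.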

Experiments:
Experiment in all cases: DTP human tumour cell line panel, 48 h
CCRF-CEM leukemia = tested on: CCRF-CEM leukemia
COLO 205 colon = tested on: COLO 205 colon
HOP-92 NSCLC = tested on: HOP-92 NSCLC
IGROV1 ovarian = tested on: IGROV1 ovarian
KM12 colon = tested on: KM12 colon
OVCAR-3 ovarian = tested on: OVCAR-3 ovarian
RXF 393 renal = tested on: RXF 393 renal
SN12C renal = tested on: SN12C renal
UO-31 renal = tested on: UO-31 renal
HS 578T breast = tested on: HS 578T breast

Row | Compound | TGI (CCRF-CEM leukemia) [µM] | TGI (COLO 205 colon) [µM] | TGI (HOP-92 NSCLC) [µM] | TGI (IGROV1 ovarian) [µM] | TGI (KM12 colon) [µM] | TGI (OVCAR-3 ovarian) [µM] | TGI (RXF 393 renal) [µM] | TGI (SN12C renal) [µM] | TGI (UO-31 renal) [µM] | TGI (HS 578T breast) [µM] | GI50 (CCRF-CEM leukemia) [µM] | GI50 (COLO 205 colon) [µM] | GI50 (HOP-92 NSCLC) [µM] | GI50 (HS 578T breast) [µM] | GI50 (IGROV1 ovarian) [µM] | GI50 (KM12 colon) [µM] | GI50 (OVCAR-3 ovarian) [µM] | GI50 (SN12C renal) [µM] | GI50 (UO-31 renal) [µM]
1 | COC(=O)C1=Cc2cc3c(cc2[C@H](c2ccc4c(c2)OCO4)C1C(=O)OC)OCO3 (some centres undefined) | > 100 | > 100 | > 100 | > 100 | > 100 | > 100 | > 100 | > 100 | > 100 | – | – | – | – | – | – | – | – | – | –
2 | CCOC(=O)C(C(=O)c1ccccc1-c1ccccc1C(=O)O)=P(c1ccccc1)(c1ccccc1)c1ccccc1 | 77.1 | 40.6 | – | 47.3 | – | 67 | 73.1 | > 100 | – | – | – | – | – | – | – | – | – | – | –
3 | CCCOC(=O)C1CCC(=O)N1C(=O)C(Cl)Cl (centres undefined) | > 100 | > 100 | > 100 | > 100 | > 100 | > 100 | – | > 100 | > 100 | – | – | – | – | – | – | – | – | – | –
4 | CCOP1(=O)OCC2OC(n3cnc4c(N)ncnc43)C(O)C2O1 (centres undefined) | – | > 100 | > 100 | > 100 | > 100 | > 100 | > 100 | > 100 | > 100 | > 100 | – | – | – | – | – | – | – | – | –
5 | COC(=O)C1=C(O)C(O)=C(C(=O)OC)CC1 | > 100 | > 100 | > 100 | > 100 | > 100 | > 100 | 35.1 | > 100 | > 100 | – | – | – | – | – | – | – | – | – | –
6 | COC(=O)C(=O)C(C#N)c1cccc2ccccc12 (centres undefined) | > 100 | > 100 | > 100 | > 100 | 99.7 | > 100 | – | > 100 | > 100 | – | – | – | – | – | – | – | – | – | –
7 | Cc1c2c(n3c(nc4ccccc43)c1C#N)SCC2 | > 10 | – | > 10 | > 10 | > 10 | > 10 | – | > 10 | > 10 | > 10 | – | – | – | – | – | – | – | – | –
8 | CCOC(=O)c1cnc2ccc(Cl)cc2c1NCCCN(C)C | > 100 | 24.6 | 98.4 | > 100 | > 100 | 97.7 | – | > 100 | 57 | > 100 | 22.2 | 10.5 | 20.3 | 29.5 | 35 | 25.8 | 28.1 | 20.5 | 16.3
9 | COC1OC(OC)C2C(c3c(C)cc(C)cc3C)=NOC12 (centres undefined) | > 100 | > 100 | > 100 | > 100 | > 100 | > 100 | > 100 | – | > 100 | – | – | – | – | – | – | – | – | – | –
10 | Cn1cc(-c2ccc3cc(-c4ccc(CC(=O)Nc5cc(C(C)(C)C)nn5C)cc4)cnc3c2)cn1 | > 100 | > 100 | > 100 | > 100 | > 100 | > 100 | – | > 100 | – | > 100 | 0.375 | 0.441 | 0.401 | 0.187 | 0.063 | 0.0233 | 0.336 | 0.23 | –
11 | CCCCN(CCCC)C(=Nc1ccccc1)N(CCCC)CCCC | 24.4 | 14 | 7.06 | 23.1 | 22.6 | 12.1 | 25.6 | – | 14.3 | – | – | – | – | – | – | – | – | – | –
12 | O=C(CC1Sc2ccccc2NC1=O)Nc1cccc(Cl)c1 (centres undefined) | > 100 | – | 86.1 | > 100 | – | 86.8 | 80.4 | > 100 | 82.5 | – | – | – | – | – | – | – | – | – | –
13 | Nc1nc2nc3c(nc2c(=O)[nH]1)CN(c1ccc(C(=O)O)cc1)C3=O | – | > 100 | > 100 | > 100 | > 100 | – | > 100 | > 100 | > 100 | > 100 | – | – | – | – | – | – | – | – | –
14 | CC(C)NC(=O)OCc1nnn2c1C(OC(=O)NC(C)C)CC2 (centres undefined) | – | > 100 | > 100 | > 100 | > 100 | > 100 | > 100 | > 100 | > 100 | – | – | – | – | – | – | – | – | – | –
15 | CCC12C=CCN3CC[C@]4(C(=C(C(=O)OC)[C@@H]1Nc1ncnc5c1ncn5C1OC(COC(C)=O)C(OC(C)=O)C1OC(C)=O)Nc1ccccc14)C32 (some centres undefined) | 6.81 | 3.48 | 9.02 | 7.31 | 5.51 | 4.3 | 3.92 | 4.45 | 13.2 | – | – | – | – | – | – | – | – | – | –
16 | COC1CCC(=C2C(=O)OC(C)(C)OC2=O)N1 (centres undefined) | > 100 | > 100 | – | > 100 | > 100 | – | > 100 | > 100 | > 100 | – | – | – | – | – | – | – | – | – | –
17 | CCc1ccc(Cc2ccc(CC)c(NC(=O)C(=O)Cc3nc4ccccc4nc3C)c2CC)c(CC)c1NC(=O)C(=O)Cc1nc2ccccc2nc1C | > 100 | > 100 | 43 | > 100 | > 100 | > 100 | > 100 | – | 72.8 | – | – | – | – | – | – | – | – | – | –
18 | COC(=O)C1=CC(=O)C(C(=O)Nc2ccc(OC)cc2)C(c2ccccc2)O1 (centres undefined) | > 100 | > 100 | 48.1 | 51 | > 100 | 58.8 | 52.8 | > 89.1 | 90.6 | – | – | – | – | – | – | – | – | – | –
19 | CC1(CCCC2(C)CCNC2=O)OCCO1 (centres undefined) | > 10 | > 10 | – | > 10 | > 10 | > 10 | > 10 | > 10 | > 10 | > 10 | – | – | – | – | – | – | – | – | –
20 | O=C1CCCC1C(=O)Nc1ccc2ccccc2c1 (centres undefined) | > 100 | > 100 | > 100 | > 100 | > 100 | > 100 | > 100 | > 100 | > 100 | – | – | – | – | – | – | – | – | – | –
21 | COc1ccc(CN(O)C2C(CO)OC(n3cc(I)c(=O)[nH]c3=O)C2O)cc1 (centres undefined) | > 100 | > 100 | > 100 | > 100 | > 100 | > 100 | > 100 | > 100 | > 100 | – | – | – | – | – | – | – | – | – | –
22 | CCS[C@H]1NC(=O)C1[C@H](C)O[Si](C)(C)C(C)(C)C (some centres undefined) | – | > 100 | > 100 | > 100 | > 100 | > 100 | > 100 | > 100 | – | – | – | – | – | – | – | – | – | – | –
23 | c1ccc([CH2][Sn]([CH2]c2ccccc2)([S]c2cccc3cccnc23)[S]c2cccc3cccnc23)cc1 | 0.686 | 0.366 | – | 0.849 | – | 0.383 | – | 1.19 | 0.399 | – | 0.102 | 0.0801 | – | – | 0.289 | – | 0.136 | 0.303 | 0.187
